For experiment [1], the target named is Metabotropic glutamate receptor 5 (Rattus norvegicus, UniProt P31424). Briefly: Identification of a glycine sulfonamide based non-MPEP site positive allosteric potentiator (PAM) of mGlu5 (calcium_assay). The experiment is classed as functional.
A further experiment concerns Vero. Briefly: West Nile virus antiviral activity, cell-based, CPE readout (AID 1621). Type of experiment: functional. The following applies: Chlorocebus sabaeus.
In a further experiment the target is Protein Tat (Human immunodeficiency virus type 1 group M subtype B (isolate HXB2)(HIV-1), UniProt P04608). Type of experiment: functional.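 Further: tat binding to TAR RNA read out by fluorescence polarization.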
Protein Tat, sequence (P04608 whole entry): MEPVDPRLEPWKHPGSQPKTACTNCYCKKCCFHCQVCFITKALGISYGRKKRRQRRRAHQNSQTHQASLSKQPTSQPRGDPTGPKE
The nature of experiment [2]: Jurkat T cell cytotoxicity, dose response, cytotoxicity control for P. falciparum gametocyte viability project, luminescence (AID 1117277).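 Further: potency reflects loss of cellular ATP meaning fewer viable cells.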 The experiment is classed as functional, cell-based.
Experiment [3] can be described thus: P. falciparum late gametocyte killing, dose response, luminescence (AID 1117278).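 Further: gametocytes exposed to compound for 24 hours.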 Type of experiment: functional, cell-based.
Another experiment addresses Genome polyprotein (dengue virus type 2, UniProt P29990). Briefly: Dengue-2 NS5 methyltransferase inhibitors, primary screen, biochemical, confirmation dose response (AID 588689). Type of experiment: functional.
The target of experiment [4] is T1, Zinc finger protein mex-5 (Caenorhabditis elegans, UniProt Q9XUB2).
T1 sequence (Q9XUB2 whole entry): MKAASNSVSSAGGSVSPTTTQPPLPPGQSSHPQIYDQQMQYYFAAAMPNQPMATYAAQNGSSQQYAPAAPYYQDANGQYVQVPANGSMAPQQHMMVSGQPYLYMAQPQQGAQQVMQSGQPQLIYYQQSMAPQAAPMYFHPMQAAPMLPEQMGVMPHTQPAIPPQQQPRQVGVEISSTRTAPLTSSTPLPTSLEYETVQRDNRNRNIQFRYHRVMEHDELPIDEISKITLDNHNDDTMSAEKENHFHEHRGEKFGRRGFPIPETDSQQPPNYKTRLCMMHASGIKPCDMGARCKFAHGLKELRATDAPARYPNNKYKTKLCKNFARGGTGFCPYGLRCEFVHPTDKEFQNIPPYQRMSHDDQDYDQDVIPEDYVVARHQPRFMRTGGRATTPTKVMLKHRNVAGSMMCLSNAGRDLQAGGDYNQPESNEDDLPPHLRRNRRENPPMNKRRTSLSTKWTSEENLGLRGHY
Kind of experiment: MEX-5/TCR-2 RNA interaction inhibitors, dose response, biochemical, C. elegans, fluorescence polarization (AID 1960). (In general: Polarisation of emitted light reports the rotation of a fluorescent probe.)

The target of experiment [5] is T2, RNA-binding protein pos-1 (Caenorhabditis elegans, UniProt G5EF15).
T2 sequence (G5EF15 whole entry): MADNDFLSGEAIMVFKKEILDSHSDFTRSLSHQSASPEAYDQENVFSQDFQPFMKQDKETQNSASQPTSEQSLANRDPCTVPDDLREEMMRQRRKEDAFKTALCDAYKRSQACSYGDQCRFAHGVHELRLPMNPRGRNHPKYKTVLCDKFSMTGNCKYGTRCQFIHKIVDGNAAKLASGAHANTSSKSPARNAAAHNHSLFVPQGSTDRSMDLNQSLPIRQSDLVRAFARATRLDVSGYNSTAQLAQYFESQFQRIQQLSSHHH
Kind of experiment: inhibitors of POS-1/mex-3 RNA binding, dose response, biochemical, fluorescence polarization (AID 1964).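 Further: purified POS-1 fused to maltose binding protein made in E. coli; potency of compounds blocking POS-1 binding to fluorescent RNA.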

The nature of experiment [6]: A375 melanoma cell cytotoxicity, dose response, counter-screen for MITF inhibitor project, CellTiter-Glo luminescence, dry powder, set 2 (AID 624489).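 Further: actives are compounds lowering A375 viability meaning general cytotoxicity.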 The experiment is classed as functional, cell-based. The following applies: A-375.
Experiment [7] in a line: A375 melanoma cell viability loss, dose response, counter-screen for MITF inhibitor project, CellTiter-Glo luminescence, dry powder, set 4 (AID 624364).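 Further: A375 melanoma cells are MITF independent so this is a counter screen.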 The experiment is classed as functional, cell-based. The following applies: A-375. A general note: Counterscreens check selectivity or assay interference.
Experiment [8] is described as follows: THP-1 cell cytotoxicity, dose response, cytotoxicity control for Vif-APOBEC3G degradation inhibitor project, THP-1 cells (AID 1117359). The experiment is classed as functional. The following applies: Human immunodeficiency virus 1, THP-1.
Experiment [9] concerns BJ. Kind of experiment: cytotoxicity toward BJ-TERT fibroblasts, dose response, cell-based, RAS-independent, luminescence (AID 1933). Type of experiment: functional, Homo sapiens. The following applies: Homo sapiens, BJ.
Experiment [10] can be described thus: Luminescence Cell-Based Dose Response HTS to Identify Activators of Luciferase Translation or Activity in H4 […] Cells. [Related pubchem assays: 1829 (Project Summary), 1814 (Primary HTS)]. Type of experiment: functional.
The target in experiment [11] is Neurotensin receptor type 1 (Homo sapiens, UniProt P30989). The experiment is classed as functional.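 Further: Image-based confirmatory dose-response assay measuring agonist activity at NTR1; NTR1-expressing U2OS osteosarcoma cells imaged for beta-arrestin GFP spot formation; agonist potency where compounds increase beta-arrestin recruitment.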
Neurotensin receptor type 1, sequence (P30989 whole entry): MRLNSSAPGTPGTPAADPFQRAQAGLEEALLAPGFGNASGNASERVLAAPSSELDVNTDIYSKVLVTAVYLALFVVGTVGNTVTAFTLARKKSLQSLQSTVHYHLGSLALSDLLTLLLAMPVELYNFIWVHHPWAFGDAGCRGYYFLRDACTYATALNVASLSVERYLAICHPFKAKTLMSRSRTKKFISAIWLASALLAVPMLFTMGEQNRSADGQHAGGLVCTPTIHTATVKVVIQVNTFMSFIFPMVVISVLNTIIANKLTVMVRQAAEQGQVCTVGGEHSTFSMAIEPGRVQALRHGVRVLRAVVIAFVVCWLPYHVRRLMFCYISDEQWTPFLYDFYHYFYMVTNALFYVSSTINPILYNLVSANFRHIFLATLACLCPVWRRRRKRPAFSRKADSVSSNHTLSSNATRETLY
The target in the next experiment is Large T antigen (Simian virus 40, UniProt P03070). The experiment is classed as functional, Betapolyomavirus macacae.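 Further: Confirmatory-stage PubChem screen for compounds that inhibit SV40 T antigen.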
Large T antigen, sequence (P03070 whole entry): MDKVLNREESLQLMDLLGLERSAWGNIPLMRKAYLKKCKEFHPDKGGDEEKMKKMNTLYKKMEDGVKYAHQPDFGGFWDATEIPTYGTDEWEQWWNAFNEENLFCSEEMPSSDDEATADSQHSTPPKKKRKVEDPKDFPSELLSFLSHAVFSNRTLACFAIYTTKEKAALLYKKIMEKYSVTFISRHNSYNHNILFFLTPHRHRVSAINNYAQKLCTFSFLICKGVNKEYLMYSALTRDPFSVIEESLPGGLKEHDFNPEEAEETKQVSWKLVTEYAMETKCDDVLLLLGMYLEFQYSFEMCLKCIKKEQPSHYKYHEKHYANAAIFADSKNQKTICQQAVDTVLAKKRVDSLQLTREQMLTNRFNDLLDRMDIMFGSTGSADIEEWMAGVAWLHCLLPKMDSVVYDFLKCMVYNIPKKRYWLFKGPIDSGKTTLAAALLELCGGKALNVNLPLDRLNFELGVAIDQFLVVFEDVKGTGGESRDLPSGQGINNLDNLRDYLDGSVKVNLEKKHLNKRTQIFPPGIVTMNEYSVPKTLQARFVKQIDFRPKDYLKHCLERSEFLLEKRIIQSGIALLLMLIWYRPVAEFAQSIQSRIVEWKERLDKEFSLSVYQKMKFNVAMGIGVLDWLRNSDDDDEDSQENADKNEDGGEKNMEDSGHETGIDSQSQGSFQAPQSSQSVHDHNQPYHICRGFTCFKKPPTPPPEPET
Experiment [12] in a line: Luminescence Cell-Based Dose Confirmation HTS to Identify Activators of 5'UTR Stem-Loop Driven Alpha-Synuclein mRNA Translation in H4 Neuroglioblastoma Cells. [Related pubchem assays: 1829 (Project Summary), 1814 (Primary HTS)]. The experiment is classed as functional.
The next experiment concerns H4. Briefly: Luminescence Cell-Based Dose Response HTS to Identify Activators of 5'UTR Stem-Loop Driven Prion Protein mRNA Translation in H4 Neuroglioblastoma Cells. [Related pubchem assays: 1829 (Project Summary), 1814 (Primary HTS)]. Type of experiment: functional. The conditions noted are these: Homo sapiens.
Experiment [13] relates to BJ. Kind of experiment: cytotoxicity toward BJ-TERT-LT-ST fibroblasts, dose response, cell-based, RAS-independent, luminescence (AID 1935).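 Further: BJ fibroblasts immortalized with TERT plus LT and ST oncogenes.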 The experiment is classed as functional, Homo sapiens. The conditions noted are these: Homo sapiens, BJ.
Experiment [14] relates to BJ. Briefly: cells. Type of experiment: functional, cell-based, Homo sapiens. The following applies: Homo sapiens, BJ.
The nature of experiment [15]: cytotoxicity toward DRD oncogenic fibroblasts, dose response, cell-based, non-viral oncogenic, luminescence (AID 1934). The experiment is classed as functional. The following applies: Homo sapiens.

Structures are written as SMILES. Activity calls are given as the source filed them.

Genome polyprotein, sequence (P29990 2492-3391 limits assumed): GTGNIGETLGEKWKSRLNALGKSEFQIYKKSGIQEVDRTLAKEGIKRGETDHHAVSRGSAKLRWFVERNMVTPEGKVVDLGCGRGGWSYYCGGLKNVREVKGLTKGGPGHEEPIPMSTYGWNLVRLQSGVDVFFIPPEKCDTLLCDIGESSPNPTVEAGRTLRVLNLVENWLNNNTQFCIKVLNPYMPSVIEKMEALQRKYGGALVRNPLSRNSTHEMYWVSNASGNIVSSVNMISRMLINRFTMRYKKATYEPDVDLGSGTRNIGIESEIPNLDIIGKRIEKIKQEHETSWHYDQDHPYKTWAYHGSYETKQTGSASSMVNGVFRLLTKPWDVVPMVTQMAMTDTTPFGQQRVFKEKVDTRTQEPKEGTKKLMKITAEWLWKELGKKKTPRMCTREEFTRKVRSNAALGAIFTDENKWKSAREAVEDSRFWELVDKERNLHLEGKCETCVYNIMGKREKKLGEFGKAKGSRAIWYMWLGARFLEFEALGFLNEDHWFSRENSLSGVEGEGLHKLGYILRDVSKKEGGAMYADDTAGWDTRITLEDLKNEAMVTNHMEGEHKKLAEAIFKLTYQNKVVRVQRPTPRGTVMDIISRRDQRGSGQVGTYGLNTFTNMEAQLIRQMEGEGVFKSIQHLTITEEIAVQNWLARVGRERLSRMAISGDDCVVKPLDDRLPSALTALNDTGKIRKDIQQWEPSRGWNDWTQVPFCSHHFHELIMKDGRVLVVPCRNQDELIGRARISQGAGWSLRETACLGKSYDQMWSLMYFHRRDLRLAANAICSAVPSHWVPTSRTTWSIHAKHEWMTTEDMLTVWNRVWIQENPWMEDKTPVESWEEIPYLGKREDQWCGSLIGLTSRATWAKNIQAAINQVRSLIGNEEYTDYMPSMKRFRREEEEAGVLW
Metabotropic glutamate receptor 5, sequence (P31424 whole entry): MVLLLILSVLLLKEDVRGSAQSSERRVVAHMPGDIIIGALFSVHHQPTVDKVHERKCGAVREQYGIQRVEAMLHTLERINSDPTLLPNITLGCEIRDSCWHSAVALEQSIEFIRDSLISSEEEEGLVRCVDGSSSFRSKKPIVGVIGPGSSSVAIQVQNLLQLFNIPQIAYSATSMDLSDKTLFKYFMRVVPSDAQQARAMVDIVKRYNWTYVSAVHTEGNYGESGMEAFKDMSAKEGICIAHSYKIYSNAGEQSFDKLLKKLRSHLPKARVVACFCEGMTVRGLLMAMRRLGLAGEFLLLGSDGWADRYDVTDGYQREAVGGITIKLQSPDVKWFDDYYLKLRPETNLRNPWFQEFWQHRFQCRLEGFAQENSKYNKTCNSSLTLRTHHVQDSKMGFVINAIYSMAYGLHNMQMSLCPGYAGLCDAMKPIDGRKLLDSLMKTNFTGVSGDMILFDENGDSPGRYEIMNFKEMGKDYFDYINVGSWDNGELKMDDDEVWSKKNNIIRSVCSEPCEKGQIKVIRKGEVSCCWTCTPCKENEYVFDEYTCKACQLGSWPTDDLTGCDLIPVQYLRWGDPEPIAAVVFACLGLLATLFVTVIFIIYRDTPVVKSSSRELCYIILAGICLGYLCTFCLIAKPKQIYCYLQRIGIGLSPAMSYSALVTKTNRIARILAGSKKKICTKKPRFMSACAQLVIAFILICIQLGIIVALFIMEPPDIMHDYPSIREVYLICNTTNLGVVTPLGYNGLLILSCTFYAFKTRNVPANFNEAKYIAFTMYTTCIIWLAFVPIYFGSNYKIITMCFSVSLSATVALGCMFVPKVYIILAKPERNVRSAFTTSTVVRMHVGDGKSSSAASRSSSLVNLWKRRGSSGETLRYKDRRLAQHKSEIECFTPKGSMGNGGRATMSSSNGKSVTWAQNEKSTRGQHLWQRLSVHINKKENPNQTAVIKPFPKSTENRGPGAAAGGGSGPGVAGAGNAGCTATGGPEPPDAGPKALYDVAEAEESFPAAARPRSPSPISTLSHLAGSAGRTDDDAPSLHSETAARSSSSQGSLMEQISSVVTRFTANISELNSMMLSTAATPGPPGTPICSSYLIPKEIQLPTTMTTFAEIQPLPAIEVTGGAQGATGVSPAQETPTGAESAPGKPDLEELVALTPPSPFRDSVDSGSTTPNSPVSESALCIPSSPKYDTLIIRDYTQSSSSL

A word on the EC50: it is the concentration at which the effect is half-maximal. For the compound `CS(=O)(=O)N(CC(=O)NC1CCCCC1)c1cc(C(F)(F)F)ccc1Cl`, the EC50 in experiment [1] is 10 µM (inconclusive).

The term IC50 denotes the concentration that inhibits the measured activity by half. Consider `CCN1CCN(CCCNC(=O)C2CCCN(c3nc4c(C)cc(C)cc4s3)C2)CC1` (centres undefined), for which, in the experiment with Vero, the IC50 was 24.8 µM (active).

In the case of `Cc1occc1-c1nnc(SCC(=O)N2CCN(c3ccccc3)CC2)n1C`, the 50% inhibitory concentration (IC50) at Protein Tat was > 100 µM (active).

For `Cc1ccc(C)c(N2CCN(C(=O)Cc3ccc(-n4c(=O)[nH]c5ccsc5c4=O)cc3)CC2)c1`, the IC50 is > 83.2 µM (inactive) in experiment [2] and > 109 µM (inactive) in experiment [3].

Broadly, the AC50 is the midpoint of the concentration-response curve, whichever way the signal moves. As to `COc1cc(C(c2c(C(=O)O)[nH]c3ccccc23)c2c(C(=O)O)[nH]c3ccccc23)ccc1OCc1ccccc1`, in the experiment “cells”, the AC50 is 7.4 µM (active). In addition, the IC50 on Genome polyprotein was 16 µM (active). Further, the EC50 in [4] was 24.5 µM (active); in experiment [5] it was 47.7 µM (active).

As for `O=C(NC1=C(c2ccc(OC(F)(F)F)cc2)C(=O)c2ccccc2C1=O)c1ccc(Br)cc1`, the values for the AC50 in [6] and in experiment [7] were 36.5 µM (active) and 41.1 µM (active), respectively.

As usually defined, the CC50 is the concentration at which the toxic effect on the cells reaches its halfway point. Regarding `CC12CCC(C(=O)Nc3cc(F)ccc3F)(CC1=O)C2(C)C` (centres undefined), the CC50 in [8] is > 40 µM (active).

On to `CC(=O)NC1=C(c2cccc(Cl)c2)C(=O)c2ccccc2C1=O`, for which the results for the AC50 in experiment [6] and in experiment [7] were 7.22 µM (active) and 14.4 µM (active), respectively.

As to `O=C1NC(=O)N(c2ccccc2)C(=O)/C1=C\C=C\c1ccccc1`, the EC50 in the experiment on BJ [9] was 2.79 µM (inconclusive); in experiment [10] it was 8.73 µM (active); in [11], 15.1 µM (active); in experiment [12], > 120 µM (not active); in the experiment on H4, > 120 µM (not active); with BJ [13], 4.12 µM (inconclusive). In addition, the EC50 in the experiment on BJ [14] is > 150 µM (inconclusive); in experiment [15], 4.66 µM (inconclusive). The IC50 on Large T antigen is 95.6 µM (active). The cytotoxic concentration (CC50) in [8] was 13 µM (active).

For the origin of these results see ChEMBL document CHEMBL1201862, “PubChem BioAssay data set” (2004).
